{"source": "patent US20150325856A1", "about": "“ENVIRONMENTALLY FRIENDLY INKJET-PRINTABLE LITHIUM BATTERY CATHODE FORMULATIONS, METHODS AND DEVICES” (NEW JERSEY INSTITUTE OF TECHNOLOGY, priority 2014, published 2015)", "origin": "cited, not measured here", "key": {"rats [1]": {"tested_on": "rats", "details": "heads only"}, "rabbits [2]": {"tested_on": "rabbits", "details": "Ansell and Fowler, as cited in WHO 2001"}, "[3]": {"tested_on": "rats, mice, guinea-pigs and rabbits"}, "rats [4]": {"tested_on": "rats", "details": "whole body exposure"}, "rabbits [5]": {"tested_on": "rabbits"}}, "note": "Read-outs that look alike come from different tables or passages of the source.", "data": [{"molecule": "CN1CCCC1=O", "note": "[NMP, N-methyl-pyrrolidone]", "values": [{"measurement": "Inhalation LC50", "setting": "rats [1]", "result": "(5100 mg/m^3)"}, {"measurement": "Inhalation LC50", "setting": "rats [1]; BASF, 1988, as cited in WHO 2001", "result": ">5.1", "unit": "µg/mL"}, {"measurement": "Tox. Cat. (dermal LD50)", "setting": "rats and rabbits; dermal", "result": "(Tox. Cat. III-IV)"}, {"measurement": "Dermal LD50", "setting": "rats and rabbits; rats and rabbits, Bartsch et al., as cited in WHO 2001, Wallen 1992", "result": "4000-10,000 mg/kg"}, {"measurement": "Primary Skin Irritation", "setting": "rabbits [2]", "result": "Practically non-"}, {"measurement": "Tox. Cat. (oral LD50)", "setting": "[3]; oral", "result": "(Tox. Cat. III-IV)"}, {"measurement": "Oral LD50", "setting": "[3]; rats, mice, guinea-pigs and rabbits, Ansell and Fowler, 1988, as cited in WHO 2001", "result": "3900 to 7900", "unit": "mg/kg"}, {"measurement": "Inhalation LC50", "setting": "rats [4]", "result": "(1700 mg/m^3)"}, {"measurement": "Inhalation LC50", "setting": "rats [4]; E. I. DuPont de Nemours & Co. 1977, as cited in WHO 2001", "result": "=1.7 mg/L"}, {"measurement": "Primary Eye Irritation, recovery", "setting": "rabbits [5]", "result": "recovered after 21 days post dosing"}, {"measurement": "Primary Eye Irritation", "setting": "rabbits [5]; causing corneal opacity, iritis and conjunctivitis, Ansell and Fowler, as cited in WHO 2001", "result": "Moderate (causing"}]}]}
